We go through 3 compounds from ChEMBL document CHEMBL1142141, “Molecular mechanism of flucytosine resistance in Candida lusitaniae: contribution of the FCY2, FCY1, and FUR1 genes to 5-fluorouracil and fluconazole cross-resistance” (2007).

≈ marks a conversion by molar mass, not a printed value. Some results are limits rather than exact numbers.

Holding throughout (assay type): functional
Test [1] has as its system Clavispora lusitaniae. Put plainly: Antifungal activity against Candida lusitaniae 6936 URA3[D95V] derived null mutant fcy1delta::URA3 by microdilution assay. For orientation: Dilution methods test growth across graded concentrations, often in twofold steps.
For test [2], the system named is Clavispora lusitaniae. As to the kind of experiment: Antifungal activity against Candida lusitaniae 6936 by microdilution assay.
Test [3] concerns Clavispora lusitaniae. Put plainly: Antifungal activity against Candida lusitaniae 6936 revertant fcy1delta::[FCY1-URA3] by microdilution assay.
In test [4] the test system is Clavispora lusitaniae. Put plainly: Antifungal activity against Candida lusitaniae 6936 URA3[D95V] derived null mutant fur1delta::URA3 by microdilution assay.
Test [5] has as its system Clavispora lusitaniae. As to the kind of experiment: Antifungal activity against Candida lusitaniae 6936 revertant fcy2delta::[FCY2-URA3] by microdilution assay.
The test system of test [6] is Clavispora lusitaniae. Put plainly: Antifungal activity against Candida lusitaniae 6936 URA3[D95V] derived null mutant fcy2delta::URA3 by microdilution assay.

By MIC is commonly meant the lowest concentration found to suppress growth. A higher MIC goes with weaker potency. `OC(Cn1cncn1)(Cn1cncn1)c1ccc(F)cc1F` [FLUCONAZOLE]: the MIC in the test with Clavispora lusitaniae [1], in the test on Clavispora lusitaniae [2], in the test on Clavispora lusitaniae [3], against Clavispora lusitaniae [4], in the test with Clavispora lusitaniae [5] and in the test with Clavispora lusitaniae [6] was 2 µg/mL (≈ 6.53 µM) throughout.
For `Nc1nc(=O)[nH]cc1F` [FLUCYTOSINE], the minimal inhibitory concentration (MIC) was 128 µg/mL (≈ 992 µM) in the test on Clavispora lusitaniae [1]; at most 0.5 µg/mL against Clavispora lusitaniae [2]; at most 0.5 µg/mL in the test with Clavispora lusitaniae [3]; at least 512 µg/mL against Clavispora lusitaniae [4]; at most 0.5 µg/mL in the test on Clavispora lusitaniae [5]; 64 µg/mL (≈ 496 µM) with Clavispora lusitaniae [6].
On to `O=c1[nH]cc(F)c(=O)[nH]1` [FLUOROURACIL], for which the minimum inhibitory concentration (MIC) was at most 0.5 µg/mL with Clavispora lusitaniae [1]; at most 0.5 µg/mL against Clavispora lusitaniae [2]; at most 0.5 µg/mL against Clavispora lusitaniae [3]; at least 512 µg/mL against Clavispora lusitaniae [4]; at most 0.5 µg/mL against Clavispora lusitaniae [5]; at most 0.5 µg/mL against Clavispora lusitaniae [6].
